# Values quoted from earlier work in patent publication US10851274B2, “Coolant mixtures for use in heat-exchange devices in the aerospace field” (Safran Electrical & Power, priority 2016, dated 2020).
# Key:
# [1] = known fluids, water and antigels; criterion <100
# [2] = known fluids; for FP: water and antigels, criterion ≥23
# [3] = for Toxicity: known coolant fluids, water and antigels, criterion: No; for Toxicity (in words): known fluids
# [4] = known fluids, water and antigels; criterion >500
SMILES,Tb [1],FP [2],Toxicity [3],ΔHvap [4],Flammability (in words) [2],Toxicity (in words) [3]
COCC(C)O (stereo not shown) [1-methoxy-2-propanol],118 °C,34 °C,No (a fluid is non-toxic if its oral LD50 is greater than 500 mg/kg),461 kJ/kg,,
CC(C)=O [Acetone],57 °C,−20 °C,No (a fluid is non-toxic if its oral LD50 is greater than 500 mg/kg),501 kJ/kg,highly flammable,
"CCOC(F)(F)C(F)(F)C(F)(F)C(F)(F)F [HFE 3M Novec 7100, ethoxynonafluorobutane]",76 °C,None,No (a fluid is non-toxic if its oral LD50 is greater than 500 mg/kg),126 kJ/kg,,
CCOCC(C)O (stereo not shown) [1-ethoxy-2-propanol],132 °C,42 °C,No (a fluid is non-toxic if its oral LD50 is greater than 500 mg/kg),308 kJ/kg,,
O=C=O [Carbon dioxide],−57 °C,None,No (a fluid is non-toxic if its oral LD50 is greater than 500 mg/kg),400 kJ/kg,,
"N [Ammoniac, ammonia]",−33 °C,132 °C,Yes,1371 kJ/kg,,toxic
CO [Methanol],64 °C,11 °C,Yes,1098 kJ/kg,highly flammable,
OCCO [ethylene glycol],,,,,,highly toxic
"CC(O)CO (stereo not shown) [Propylene-glycol, propylene glycol]",187 °C,107 °C,No (a fluid is non-toxic if its oral LD50 is greater than 500 mg/kg),736 kJ/kg,,
O [Water],100 °C,None,No (a fluid is non-toxic if its oral LD50 is greater than 500 mg/kg),,fireproof,non-toxic
CCO [Ethanol],78 °C,13 °C,No (a fluid is non-toxic if its oral LD50 is greater than 500 mg/kg),837 kJ/kg,highly flammable,
